{
  "source": "patent US20240058344A1",
  "about": "“METHODS OF TREATING NEURODEGENERATIVE DISORDERS AND STAT3-LINKED CANCERS USING SUPPRESSORS OF ELECTRON LEAK” (Cornell University, priority 2020, published 2024)",
  "key": {"[1]": {"tested_on": "STAT3", "experiment": "Phospho-STAT3 and total STAT3 in primary astrocytes (Western blotting)", "type": "cell-based, mice", "settings": "for Phosphorylated STAT3 levels / Total STAT3 levels: S3QEL2 60 μM", "method": "(FIGS. 11A-11B) Astrocytes isolated from P2-P3 mice were treated with oligomeric Aβ (3 μM) and S3QEL2 (S3, 20 μM) or vehicle (V) for 24 h and analyzed by qRT-PCR (FIG. 11A) or Western blotting (B) and normalized to vehicle controls. (FIG. 11B) Phospho-STAT3 levels were normalized to total STAT3 per sample. n=3 wells per condition; *p<0.05, **p<0.01, ***p<0.001, ANOVA with Dunnett's test.\n(FIGS. 12A-12B) Astrocytes isolated from P2-P3 mice were treated with oligomeric Aβ (3 μM) (A) or A1 cocktail consisting of 30 ng/mL TNF-α, 3 ng/mL IL-1α, and 400 ng/mL Clq (B), and S3QEL2 (S3, 60 μM) or vehicle (Con) for indicated durations and analyzed by Western blotting. Phospho-STAT3 levels were normalized to total STAT3 per sample, and total STAT3 levels were normalized to γ-tubulin levels per sample. n≥3 wells per condition; *p<0.05, **p<0.01, ***p<0.001, one-way ANOVA with Tukey's multiple comparisons test.\n(FIG. 17A) Astrocytes isolated from P2-P3 mice were treated with A1 cocktail consisting of 30 ng/ml TNF-α, 3 ng/ml IL-1α, and 400 ng/ml Clq, and S3QEL1.2 (3 μM) or vehicle for approximately 6 h and analyzed by Western blotting. Phospho-STAT3 levels were normalized to total STAT3 per sample. n=6 wells per condition. **p<0.01, ***p<0.001, one-way ANOVA with Dunnett's multiple comparisons test. (FIG. 17B) Astrocytes isolated from P2-P3 mice were treated with A1 cocktail consisting of 30 ng/ml TNF-α, 3 ng/ml IL-1α, and 400 ng/ml Clq for 24 h, and analyzed for levels of released H2O2 using Amplex UltraRed, a fluorogenic substrate that is a highly sensitive indicator of H2O2, in the presence of horseradish peroxidase and superoxide dismutase. n=6 wells per condition. *p=0.01, Student's t test. (FIG. 17C) Astrocytes isolated from P2-P3 mice were treated with vehicle or 3 ng/ml IL-1α and either S3QEL2 (20 μM), S3QEL1.2 (1 μM), or vehicle for approximately 24 h, and analyzed for levels of released H2O2 using Amplex UltraRed. n=6 wells per condition. *p<0.05, **p<0.01, ***p<0.001, two-way ANOVA with Bonferroni's multiple comparisons test.\nSimilar to oligomeric Aβ, A1 cocktail (which is a mixture of TNF-α, IL-1α, and Clq) induced astrocytic reactivity that is associated with synaptic damage and neurodegeneration.\nGiven that this compound has a different chemical structure, these findings indicate that S3QELs suppress astrocytic reactivity and neuroinflammatory responses through modulation of complex III ROS rather than modulation of other off-target or nonspecific mechanisms."}, "[2]": {"tested_on": "U-87 MG glioblastoma cells", "experiment": "Glioblastoma cell proliferation, DAPI staining of cell nuclei, U-87 MG", "type": "cell-based, human", "settings": "72 h", "method": "(§1) Cell density was measured using DAPI staining of cell nuclei and quantification of fluorescence intensities. n=3 wells per condition. […] STAT3 levels were measured by Western blotting. STAT3 levels were normalized to γ-tubulin levels within each cell lysate and expressed as fold change relative to U-87MG cells. n=4 wells per condition. **p<0.01, ***p<0.001 vs. 0 μM or U-87MG, one-way ANOVA with Dunnett's multiple comparisons test.\n(§2) Briefly, two complementary methods were used to assess cell proliferation, including the CellTiter-Glo assay and DAPI staining of cell nuclei. The effects of S3QEL2 treatment on A-172, T98G, and U-87 MG cells were measured at different drug concentrations (0, 6, 20, 30, 40, or 50 μM) and time-points after treatment (72 or 96 hours). S3QEL2 inhibits proliferation of A-172 and T98G glioblastoma cells in a highly dose-dependent manner and these effects are similar at different time-points (FIG. 15A-B)."}, "[3]": {"tested_on": "A-172 glioblastoma cells", "experiment": "Glioblastoma cell proliferation, DAPI staining of cell nuclei, A-172", "type": "cell-based, human", "settings": "72 h", "method": "as §1, §2"}, "[4]": {"tested_on": "Nrf2", "experiment": "Hippocampal RNA levels of Nrf2 in hTauP301S mice", "type": "in vivo", "settings": "5 mg/kg/day, six weeks"}, "[5]": {"tested_on": "astrocytes", "experiment": "Oxygen consumption rates (mitochondrial respiration) in astrocytes", "type": "cell-based", "text": "Oxygen consumption rates (OCR) and maximal consumption rates are shown for indicated S3QEL2 concentrations and time points. Antimycin and rotenone were used as positive controls to inhibit mitochondrial respiration. ***p<0.001 vs. vehicle, two-way repeated measures ANOVA with Dunnett's multiple comparisons test."}, "[6]": {"tested_on": "astrocytic H2O2 production", "experiment": "Released H2O2 from primary astrocytes (Amplex UltraRed)", "type": "cell-based, mice", "settings": "S3QEL2 20 μM, S3QEL1.2 1 μM, approximately 24 h", "method": "(FIG. 17A) Astrocytes isolated from P2-P3 mice were treated with A1 cocktail consisting of 30 ng/ml TNF-α, 3 ng/ml IL-1α, and 400 ng/ml Clq, and S3QEL1.2 (3 μM) or vehicle for approximately 6 h and analyzed by Western blotting. Phospho-STAT3 levels were normalized to total STAT3 per sample. n=6 wells per condition. **p<0.01, ***p<0.001, one-way ANOVA with Dunnett's multiple comparisons test. (FIG. 17B) Astrocytes isolated from P2-P3 mice were treated with A1 cocktail consisting of 30 ng/ml TNF-α, 3 ng/ml IL-1α, and 400 ng/ml Clq for 24 h, and analyzed for levels of released H2O2 using Amplex UltraRed, a fluorogenic substrate that is a highly sensitive indicator of H2O2, in the presence of horseradish peroxidase and superoxide dismutase. n=6 wells per condition. *p=0.01, Student's t test. (FIG. 17C) Astrocytes isolated from P2-P3 mice were treated with vehicle or 3 ng/ml IL-1α and either S3QEL2 (20 μM), S3QEL1.2 (1 μM), or vehicle for approximately 24 h, and analyzed for levels of released H2O2 using Amplex UltraRed. n=6 wells per condition. *p<0.05, **p<0.01, ***p<0.001, two-way ANOVA with Bonferroni's multiple comparisons test. […]"}, "[7]": {"settings": "A1 cocktail (TNF-α, IL-1α, Clq)"}},
  "data": [
    {"smiles": "CCCN(CCC)c1ncnc2c1cnn2-c1ccc(C)c(C)c1", "note": "[S3QEL2]", "values": [
      {"measurement": "Phosphorylated STAT3 levels", "setting": "[1]; [7]", "value": "reduced"},
      {"measurement": "Total STAT3 levels", "setting": "[1]; [7]", "value": "reduced"},
      {"measurement": "Phospho-STAT3 levels normalized to total STAT3", "setting": "[1]; oligomeric Aβ 3 μM, S3QEL2 20 μM, 24 h", "value": "reduced"},
      {"measurement": "Phosphorylated STAT3 levels", "setting": "[1]; oligomeric Aβ 3 μM", "value": "reduced"},
      {"measurement": "Total STAT3 levels", "setting": "[1]; oligomeric Aβ 3 μM", "value": "reduced"},
      {"measurement": "Cell proliferation (cell density, DAPI staining)", "setting": "[2]", "value": "but not U-87 MG cells"},
      {"measurement": "Cell proliferation (cell density, DAPI staining)", "setting": "[3]", "value": "reduces proliferation"},
      {"measurement": "Hippocampal Nrf2 RNA levels", "setting": "[4]", "value": "reduced"},
      {"measurement": "Mitochondrial respiration (oxygen consumption rates, OCR)", "setting": "[5]", "value": "does not affect mitochondrial respiration"},
      {"measurement": "Increases in astrocytic H2O2 levels induced by IL-1α", "setting": "[6]; IL-1α 3 ng/ml", "value": "suppressed the increases"},
      {"measurement": "Baseline astrocytic H2O2 levels", "setting": "[6]; vehicle", "value": "minimal effects"}
    ]}
  ]
}
